Positions count from the first letter of the chain named. Names and notes keep the numbering of the source. Blank lines part the entries; values can stand above or below the molecule they belong to. Where no end group is shown, it is not given here.
Key:
[1] = target: T1, SPOP–MATH (residues 28–166) (Homo sapiens, UniProt O43791); assay: Competition fluorescence anisotropy, displacement of f-Puc from SPOP–MATH; format: binding; details: competition FA; 40 nM f-Puc, 6 μM SPOP–MATH; 50 mM sodium phosphate pH 6.5, 50 mM NaCl, 5 mM DTT, 1% BSA, 0.01% Triton X-100; complete competitive binding model; ± standard deviation of three independent replicates (Table S4)
T1 construct: glutathione S-transferase (GST) (N, cleaved yes); 6X His (N, cleaved yes); made in house; host or cells: E. coli BL-21(DE3)
Source text: An Escherichia coli codon-optimized DNA sequence encoding amino acids 205 to 283 of the human Pdx1 sequence (Pdx1-C) in the multiple cloning site of pET49b(+) was purchased from GeneArt (Thermo Fisher). The pET49b(+) backbone encodes for N-terminal glutathione S-transferase and 6X His tags, followed by a 3C protease recognition motif. In all experiments described herein, a mutant containing an exogenous tryptophan at the N terminus of the human Pdx1-C sequence was used for the purposes of quantitation. Mutations in Pdx1-C were generated by Q5 site-directed mutagenesis (New England Biolabs) with primers designed on NEBbasechanger.com according to the manufacturer protocol. Similarly, an E. coli–optimized DNA sequence encoding residues 28 to 166 of human SPOP (SPOP–MATH) was purchased in pET49b(+) from GeneArt. […] A plasmid encoding His–SUMO–SPOP human residues 28 to 359 harboring a tobacco etch virus protease recognition site directly N terminal to the beginning of the native SPOP protein sequence was generated previously ([21]).
All FA experiments were conducted in 50 mM sodium phosphate, pH 6.5, 50 mM sodium chloride, 5 mM DTT, 1% BSA, and 0.01% Triton X-100. In all experiments, the source of fluorescence signal was f-Puc purchased from GenScript, at a final concentration of 40 nM. For direct FA measurements, SPOP–MATH or SPOP28–359 of concentrations between 0.001 and 300 μM was added to wells of 96- or 384-well plates containing f-Puc and buffer. For competition-mode experiments, serial dilutions of each competitor (Pdx1 peptide or recombinant protein) were prepared ranging from ∼0.01 μM to ∼2 mM (concentration range varied based on peptide solubility) in wells of 96- or 384-well plates containing 40 nM f-Puc and 6 μM SPOP–MATH or SPOP28–359. The fluorescence polarization of each well was measured (from which FA was calculated) using either a TECAN Infinite M1000 Pro or BioTek Synergy 4 fluorometer. All experiments were performed with at least three technical replicates. FA data points were fit to a complete competitive binding model ([23]) to determine dissociation constants using in-house Python scripts (see Quantification and statistical analysis).
All titrations were performed in triplicate for rigor. Direct FA titrations were performed to determine the dissociation constants of the fluorescent probe toward SPOP constructs. Direct titration data were fit according to equation 6 in ([54]). Competition mode titration data were fit according to the fitting function in ([23]). Average dissociation constants and standard error from the mean for all constructs from competition experiments may be found in Table S4. The python scripts used in plotting and fitting may be found at https://github.com/idpemery/spop-pdx1.

[2] = system: SPOP-mediated ubiquitination in T-REx-293 cells; assay: SPOP-mediated ubiquitination of Pdx1 variants (Ni-NTA pulldown, immunoblot); format: cell-based; details: SPOP–myc and GFP–Pdx1 coexpressed 24 h, then 20 μM MG132 or DMSO for 4 h, immunoblot (Fig. 6C)
Experimental: We next sought to determine whether SPOP-driven ubiquitination of Pdx1 could occur outside of previously implicated droplets. Given the SPOP relocalization phenotype that we observe in cells that express SPOP and Pdx1, we hypothesized that the ubiquitination activity was occurring in the diffuse nucleoplasm and that optimal activity requires both SB sites. To test this hypothesis, we performed in cell ubiquitination assays with GFP–Pdx1 variants. SPOP–myc and GFP–Pdx1 were coexpressed for 24 h in T-REx-293 cells, followed by a 4-h treatment with 20 μM MG132 or dimethyl sulfoxide. Proteins modified with His-ubiquitin were enriched by pulldown on nickel-nitrilotriacetic acid (Ni-NTA) resin.
(§1) A plasmid encoding full-length human Pdx1 (amino acids 1-283) in pcDNA3.1 with a C-terminal GFP tag was purchased from GenScript. Full-length mouse SPOP (identical to the human sequence) with a V5 epitope tag in pcDNA3 was generated previously ([21]). The coding sequence for full-length mouse SPOP was inserted into pcDNA4/TO/myc (Invitrogen) for the T-REx system. pcDNA3-myc-CUL3 (cat no. 19893) and pcDNA–HA2–ROC1 (Rbx1) (cat no. 19897) were obtained from Addgene. pcDNA3 containing His-ubiquitin was a gift from Wenyi Wei.
Ubiquitination and Western blots
(§2) T-REx-293 cells (Invitrogen) were seeded at a density of 0.8 × 10^6 per well in 6-well plates (tissue culture–treated plates (cat. no 3516, Corning)). After 24 h, cells were transfected with plasmids encoding Pdx1–GFP, SPOP–myc, His–ubiquitin, HA–Rbx1, and myc–CUL3 (as indicated) using the Qiagen Effectene transfection reagent. 24 h after transfection, the cells were treated with either dimethyl sulfoxide or 20 μM MG132 for 4 h before being harvested. Cells were lysed in buffer A (6 M guanidine HCl, 100 mM sodium phosphate, pH 8.0, and 10 mM imidazole). The lysates were sonicated, cleared, and incubated with Ni-NTA Agarose (Qiagen) for 3 h at RT, followed by 16 h at 4 °C. The beads were washed twice with buffer A and twice with a buffer composed of 1:3 buffer A:buffer T1 (buffer T1: 25 mM Tris HCl, pH 8.0, and 20 mM imidazole). The beads were finally transferred to buffer T1 and then boiled in the SDS-PAGE loading buffer containing 300 mM imidazole. Pdx1 stability assays were performed as described above, except that the cells were not treated with MG132. Cells expressing Pdx1–GFP or a variant were harvested 28 h after transfection, resuspended in 2x SDS-loading dye, and boiled for 5 min before SDS-PAGE analysis.
(§3) All proteins were resolved by SDS-PAGE. Separated proteins were analyzed by immunoblotting using either the ECL or the ECL Select Western blotting detection reagents (Amersham). The antibodies used were mouse anti-Pdx1 used at 1:500 for pulldown or 1:2000 for inputs (clone 26771, MAB2419, R&D Systems), mouse anti-myc (1:250, clone 9E10, Santa Cruz Biotechnology), and rabbit anti-GAPDH (1:8000, clone EPR1689, Abcam). horseradish peroxidase-conjugated secondary antibodies were sourced from Jackson ImmunoResearch Laboratories and used at 1:20,000 dilution (goat anti-rabbit IgG, 111-035-003 and goat anti-mouse, 115-035-003).

V5-SPOP in HeLa cells = assay: Immunofluorescence: V5-SPOP localization on coexpression of GFP–Pdx1 variants; format: cell-based; details: coexpressed with V5-SPOP, 24 h after transfection, three biological replicates
Experimental: (§4) HeLa cells were cultured under sterile conditions with Dulbecco’s modified Eagle’s medium (DMEM) (Gibco) supplemented with 10% fetal bovine serum and antibiotics/antimycotics (Gibco) (see Table S5 for key reagents and resources). T-REx-293 cells (cat. no. R710-07) were obtained from Invitrogen. Cells were grown on DMEM supplemented with 10% fetal bovine serum (Gibco), GlutaMax (Gibco), and Penicillin-Streptomycin (Gibco) and kept under selection by 5 μg/ml blasticidin. All cells were grown at 37 °C under 5% CO2 and were mycoplasma free at the time the experiments were performed.
as §1
For immunofluorescence experiments, 0.5 × 10^6 cells were seeded on borosilicate glass coverslips in 6-well plates. After 24 h, cells were transfected with 400 ng of each plasmid using the Qiagen Effectene transfection reagent according to the manufacturer protocol. 24 h after transfection, the cells were treated with 4% paraformaldehyde in PBS for 30 min at RT. Cells were permeabilized with 0.1% Triton X-100 in PBS (PBST) for 5 min at 21 °C, followed by blocking in 0.5% BSA in PBST for 1 h at 21 °C. Signal from GFP-tagged proteins was observed directly. Cells were stained in primary antibodies diluted in 0.5% BSA in PBST overnight at 4 °C with mouse anti-SC-35 (1:300, ab11826; Abcam) and chicken anti-V5 (1:300, NB600-379; Novus Biologicals). Cells were incubated with secondary antibodies for 2 h at 21 °C. The secondary antibodies used were goat anti-mouse Alexa Fluor 647 (1:250, A-21235; Thermo Fisher) and goat anti-chicken Alexa Fluor 555 (1:250, A-21437; Thermo Fisher). Cells on coverslips were treated with 300 nM 4′,6-diamidino-2-phenylindole (DAPI) for 5 min at 21 °C. Coverslips were mounted on glass slides with ProLong Diamond mounting reagent (Thermo Fisher) and cured before imaging on a Zeiss LSM 880 Upright microscope. All images were analyzed and prepared in Fiji ([53]).
All immunofluorescence data were averaged over three biological replicates. Cells not expressing both Pdx1 and SPOP were excluded from sampling. Raw images were collected in the Zeiss Zen software and then exported for viewing and analysis in Fiji. Nuclei of individual cells were designated manually in Fiji using the DAPI channel as a guide. The cells were binned based on whether SPOP was localized to nuclear speckles (puncta); cells with both diffuse and punctate SPOP signal were binned as “speckled.” The grayscale signal intensity of the green channel (Pdx1–GFP) was averaged over the DAPI-designated nuclear area. Next, the raw GFP intensity data points (one data point per cell analyzed) were plotted to generate a violin plot distribution. The average, minimum, and maximum values are shown by horizontal lines on the plot. Individual data points are also shown for rigor. […] All plotting and statistical tests were performed using in-house python scripts that can be found at https://github.com/idpemery/spop-pdx1.

[3] = system: SPOP-dependent turnover in T-REx-293 cells; assay: SPOP-dependent Pdx1 stability (Western blot); format: cell-based; details: no MG132, harvested 28 h after transfection, Western blot (Fig. S3D)
Experimental: In a similar experiment, the cells were not treated with a proteasome inhibitor to observe the SPOP-dependent stability of each Pdx1 variant.
as §2, §3

[4] = target: T2, SPOP-MATH (human SPOP residues 28-166) (human, UniProt O43791 28-166); assay: fluorescence polarisation; competition fluorescence anisotropy: competitor (~0.01 μM to ~2 mM) displaces 40 nM f-Puc from 6 μM SPOP-MATH or SPOP28-359; complete competitive binding fit; 50 mM sodium phosphate pH 6.5, 50 mM NaCl, 5 mM DTT, 1% BSA, 0.01% Triton X-100; details: both partners purified
T2 construct: N-terminal Gly-Pro-Gly cloning artefact left after 3C protease; speckle-type POZ protein (SPOP), human, MATH domain, residues 28-166; uniformly 15N-labelled for the NMR experiments; also called 15N-SPOP-MATH; source: E. coli BL-21(DE3), purified (Ni-NTA, 3C protease, second Ni-NTA, Sephacryl S100); not shown: GST, N-terminal, cleaved; His6, N-terminal, cleaved
T2 sequence (O43791 other isoform, or with tags, fused parts or gaps): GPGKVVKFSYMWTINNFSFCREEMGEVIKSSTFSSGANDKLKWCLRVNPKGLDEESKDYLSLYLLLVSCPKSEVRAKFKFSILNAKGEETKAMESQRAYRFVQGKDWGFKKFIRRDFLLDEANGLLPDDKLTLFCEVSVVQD

HeLa cells = assay: Immunofluorescence: subcellular localization / phase separation of the protein itself; format: cell-based; details: SC-35 nuclear speckle marker
Experimental: as §4, §1
For immunofluorescence experiments, 0.5 × 10^6 cells were seeded on borosilicate glass coverslips in 6-well plates. After 24 h, cells were transfected with 400 ng of each plasmid using the Qiagen Effectene transfection reagent according to the manufacturer protocol. 24 h after transfection, the cells were treated with 4% paraformaldehyde in PBS for 30 min at RT. Cells were permeabilized with 0.1% Triton X-100 in PBS (PBST) for 5 min at 21 °C, followed by blocking in 0.5% BSA in PBST for 1 h at 21 °C. Signal from GFP-tagged proteins was observed directly. […] All images were analyzed and prepared in Fiji ([53]).
All immunofluorescence data were averaged over three biological replicates. […] Next, the raw GFP intensity data points (one data point per cell analyzed) were plotted to generate a violin plot distribution. […]

KD (binding to SPOP-MATH) [1]: no binding
Molecule: Ac-GSSSEADEMAKALEAELNDLM [Mock (Fcp1), mock peptide, residues 941-961, negative control, reference compound]

Kd [1]: > 600 µM
Molecule: Ac-LSASPQPSSVAPRRPQEPR [Pdx1–SBM2]

Molecule: GFP–Pdx1–ΔSBM1: GFP–Pdx1 with deletion of the higher-affinity SBM1 (residues 224–236)
ubiquitination of Pdx1 variant [2]: impedes ubiquitination, as shown by no shift from the unmodified band
ubiquitination of Pdx1 variant ([2]; listed as Pdx1 lacking SBM1): not observably ubiquitinated
SPOP relocalization from nuclear speckles by Pdx1 variant (V5-SPOP in HeLa cells): all cells, regardless of GFP–Pdx1–ΔSBM1 levels, contain punctate V5-SPOP
SPOP-dependent Pdx1 stability [3]: more stable relative to the WT protein

Kd [4]: 630 µM
B1: Pdx1-SBM2 peptide (human Pdx1 residues 265-283) (peptide)
peptide: Ac-LSASPQPSSVAPRRPQEPR
notes: pancreatic and duodenal homeobox 1 (Pdx1), human, residues 265-283; also called Pdx1 265-283; source: synthetic peptide (Tufts University Core Facility, HPLC purified)

B2: V5-SPOP: full-length mouse SPOP (identical to the human sequence) with a V5 epitope tag (protein, UniProt Q6ZWS8 1-374, looked up)
chain: MSRVPSPPPPAEMSSGPVAESWCYTQIKVVKFSYMWTINNFSFCREEMGEVIKSSTFSSGANDKLKWCLRVNPKGLDEESKDYLSLYLLLVSCPKSEVRAKFKFSILNAKGEETKAMESQRAYRFVQGKDWGFKKFIRRDFLLDEANGLLPDDKLTLFCEVSVVQDSVNISGQNTMNMVKVPECRLADELGGLWENSRFTDCCLCVAGQEFQAHKAILAARSPVFSAMFEHEMEESKKNRVEINDVEPEVFKEMMCFIYTGKAPNLDKMADDLLAAADKYALERLKVMCEDALCSNLSVENAAEILILADLHSADQLKTQAVDFINYHASDVLETSGWKSMVVSHPHLVAEAYRSLASAQCPFLGPPRKRLKQS
modifications: full-length V5 tag
V5-SPOP localization when expressed alone (HeLa cells): localizes to nuclear speckles

B3: W131G: substrate binding-impaired SPOP mutant (protein, UniProt O43791 1-374, looked up, variant W131G)
Speckle-type POZ protein: B2 chain with W131G
modifications: V5 tag
ubiquitination of Pdx1 variant [2]: lack of any shift of the Pdx1 band

— PMC8138767, “Intrinsically disordered substrates dictate SPOP subnuclear localization and ubiquitination activity” (The Journal of Biological Chemistry, 2021)
